Test: Storage stability test of crystalline Form HN1 (PXRD, HPLC purity, Karl Fischer water content)
Assay type: physicochemical
Set-up: Water: unit not given here
Conditions: for Purity: HPLC; for Water: Karl Fischer
Description: X-ray powder diffraction spectrum was measured on a BRUKER axs D8 advance X-ray powder diffractometer having a copper-Ka radiation. Approximately 1 gm of sample was gently flattered on a sample holder and scanned from 2 to 50 degrees two-theta, at 0.02 degrees two theta per step and a step time of 10.8 seconds. The sample was simply placed on the sample holder. The sample was rotated at 30 rpm at a voltage 40 KV and current […].
In another aspect of the present invention Bictegravir potassium crystalline Form HN1 is stable at 5±3° C. and 25±2° C./60±5% RH (Relative humidity) and has the following stability data:
The stability of samples was tested by PXRD, HPLC and water content was measured by Karl Fischer method.

[1] = storage 25 ± 2° C./RH 60 ± 5%, 1st month
[2] = storage 25 ± 2° C./RH 60 ± 5%, 3rd month
[3] = storage 25 ± 2° C./RH 60 ± 5%, 6th month
[4] = storage 25 ± 2° C./RH 60 ± 5%, Initial
[5] = at 5±3° C. and 25±2° C./60±5% RH

O=C(NCc1c(F)cc(F)cc1F)c1cn2c(c([O-])c1=O)C(=O)N1[C@H]3CC[C@H](C3)O[C@@H]1C2.[K+] [Form HN1, Bictegravir potassium]
Purity (storage 5 ± 3° C., 1st month): 99.87
Purity (storage 5 ± 3° C., 3rd month): 99.81
Purity (storage 5 ± 3° C., 6th month): 99.81
Purity (storage 5 ± 3° C., Initial): 99.88
Purity [1]: 99.87
Purity [2]: 99.80
Purity [3]: 99.81
Purity [4]: 99.88
Water (storage 5 ± 3° C., 1st month): 2.8
Water (storage 5 ± 3° C., 3rd month): 2.8
Water (storage 5 ± 3° C., 6th month): 2.8
Water (storage 5 ± 3° C., Initial): 2.2
Water [1]: 2.8
Water [2]: 2.9
Water [3]: 2.8
Water [4]: 2.2
change in PXRD pattern after storage [5]: no change
change in water content after storage [5]: no change
decrease in purity after storage [5]: no significant decrease
stability on storage (overall) [5]: physically and chemically stable
PXRD (storage 5 ± 3° C., 1st month): Form HN1
PXRD (storage 5 ± 3° C., 3rd month): Form HN1
PXRD (storage 5 ± 3° C., 6th month): Form HN1
PXRD (storage 5 ± 3° C., Initial): Form HN1
PXRD [1]: Form HN1
PXRD [2]: Form HN1
PXRD [3]: Form HN1
PXRD [4]: Form HN1
